# Patent publication US7618998B2, “Isoflavone derivatives and pharmaceutical compositions comprising the same” (Kaosiung Medical University, priority 2008, dated 2009)
# Tests used:
# [1] = tested on: TRAP activity in RAW 264.7; experiment: Tartrate resistant acid phosphatase (TRAP) solution assay in RANKL-treated RAW 264.7 cells; assay type: cell-based; settings: for inhibition at 10 µM: Mus musculus, RAW264.7, 120 h, 5 days, RANKL 100 ng/mL
# Method: 10^3 Raw 264.7 cells were cultured in 96-well plates with 100 ng/mL RANKL (R&D Systems, Minneapolis, Minn.). Cultures were incubated at 37° C. in 5% CO2 for 5 days with the addition of media containing fresh RANKL on day 3. In the TRAP solution assay, enzyme activity was examined by the conversion of α-naphthyl phosphate (4 mmol/liter; Sigma Chemical Co.) to α-naphthol in the presence of a 2 mol/liter L-tartrate solution (Sigma Chemical Co.) in each well. Absorbance was measured at 405 nm using a microplate reader (model 550; Bio-Rad Labs.) (Bandyopadhyay, S. et. el. Biochem. Pharmacol. 2006, 72, 184.).
# hADSCs [2] = experiment: Cell viability by MTT assay in hADSCs; assay type: cell-based, Human; settings: 10 μM, % of control
# Method: (§1) Human adipose tissue derived stem cells (hADSCs), which is derived from adipose tissue, were selected an maintained in a keratinocyte SFM medium (Gibco BRL, Gaithersburg, Md.) supplemented with 5% FBS, 100 U/ml of penicillin and streptomycin.
# (§2) New synthetic compounds were dissolved in DMSO to a final concentration of 10 mM and stored at −20° C. The concentration used was 10 μM and freshly diluted to the medium with a final concentration of DMSO at 0.1%. Control cultures were treated with the same amount of DMSO as used in the corresponding experiments.
# (§3) The MTT assay is a calorimetric assay based on the ability of the viable cells to reduce a soluble yellow tetrazolium salt to blue formazan crystals (Carmichael, J. et. el. Cancer Research 1987, 47, 936). After compound treatments, 350 μL of MTT solution ([…] in PBS) were added to each well and incubated for 4 hrs. DMSO was then added for another 0.5 hrs to thoroughly dissolve the dark blue crystals. The absorbance at 570 nm was measured with an ELISA reader. Inhibition of mitochondrial metabolism was shown as relative activity (% of control).
# D1 cells [3] = experiment: Osteogenic differentiation, quantification of mineralization (Alizarin red S) in D1 cells; assay type: cell-based, Balb/c mice; settings: 10 μM, osteo-induction medium
# Method: (§4) D1-cell, which is a mesenchymal stem cell line cloned from bone marrow cells of Balb/c mice, were purchased from American Type Culture Collection (Rockville, Md.). D1-cells can be induced into osteoblasts, adipocytes and chondrocytes. D1-cells were maintained in DMEM (Gibco BRL, Gaithersburg, Md.) supplemented with 10% FBS, 100 U/ml of penicillin and streptomycin.
# as §2
# (§5) Osteogenic differentiation was induced by culturing cells in an osteo-induction medium (OIM, 10% FBS, 0.1 μM dexamethasone, 10 mM β-glycerophosphate, and L-Ascorbic 2 phosphate 100 μM in low glucose DMEM) for 7-14 days. The extracellular matrix calcification was estimated by using an Alizarin red S stain (Carl, A. et al Anal. Biochem. 2004, 329, 77). The Alizarin red S-stained mineral was quantified by the osteogenesis quantification kit (CHEMICON®).
# MC3T3E1 cells = experiment: Osteogenic differentiation, quantification of mineralization (Alizarin red S) in MC3T3E1 cells; assay type: cell-based, C57BL/6 mice; settings: for Mineralization MC3T3E1 cells (12 days): 10 μM, osteo-induction medium
# Method: MC3T3E1 cell, which is a preosteoblast cell line derived from calvaria of C57BL/6 mice, were obtained from the American Type Culture Collection (Rockville, Md.). MC3T3E1 cells were maintained in αMEM (Gibco BRL, Gaithersburg, Md.) supplemented with 10% FBS, 100 U/mL of penicillin and streptomycin.
# as §2, §5
# D1 cells [4] = experiment: Cell viability by MTT assay in D1 cells; assay type: cell-based, Balb/c mice; settings: 10 μM, % of control
# Method: as §4, §2, §3
# hADSCs [5] = experiment: Osteogenic differentiation, quantification of mineralization (Alizarin red S) in hADSCs; assay type: cell-based, Human; settings: 10 μM, osteo-induction medium
# Method: as §1, §2, §5
melting point [°C],SMILES,inhibition at 10 µM [1] [%],"Cell viability hADSCs (3 days, MTT) (hADSCs [2]) [%]",Anti-osteoporotic activities compared with compound 5c ([1]; overall statement on Tables 1 and 2 (TRAP inhibition and mineralization)),Mineralization D1 cells (7 days) (D1 cells [3]) [%],Mineralization MC3T3E1 cells (12 days) (MC3T3E1 cells) [%],"Cell viability D1 cells (3 days, MTT) (D1 cells [4]) [%]",Mineralization hADSCs (10 days) (hADSCs [5]) [%],Osteoclast inhibitory activity (inhibition of TRAP activity in RAW 264.7) relative to ipriflavone ([1]; more active than ipriflavone) [fold],Promotion of osteoblast activity (mineralization in MC3T3E1 cells) relative to ipriflavone (MC3T3E1 cells; more active than ipriflavone) [fold]
70 to 71,"COc1ccc(-c2coc3cc(OCC(O)CNC4CCCCC4)ccc3c2=O)cc1OC (stereo not drawn) [Compound 6c, 7-[3-(Cyclohexylamino)-2-hydroxypropoxy]-3-(3,4-dimethoxyphenyl)-4H-chromen-4-one]",120,,,,,,,,
135 to 136,"COc1ccc(-c2coc3cc(OCC(O)CN4CCOCC4)ccc3c2=O)cc1OC (stereo not drawn) [Compound 6a, 3-(3,4-Dimethoxyphenyl)-7-(2-hydroxy-3-morpholinopropoxy)-4H-chromen-4-one]",0,,,,,,,,
84 to 85,"COc1ccc(-c2coc3cc(OCC(O)CN4CCNCC4)ccc3c2=O)cc1OC (stereo not drawn) [Compound 6b, 3-(3,4-Dimethoxyphenyl)-7-[2-hydroxy-3-(piperazin-1-yl)propoxy]-4H-chromen-4-one]",0,,,,,,,,

# More lines, now with the values behind:
SMILES,melting point [°C],inhibition at 10 µM [1] [%],"Cell viability hADSCs (3 days, MTT) (hADSCs [2]) [%]",Anti-osteoporotic activities compared with compound 5c ([1]; overall statement on Tables 1 and 2 (TRAP inhibition and mineralization)),Mineralization D1 cells (7 days) (D1 cells [3]) [%],Mineralization MC3T3E1 cells (12 days) (MC3T3E1 cells) [%],"Cell viability D1 cells (3 days, MTT) (D1 cells [4]) [%]",Mineralization hADSCs (10 days) (hADSCs [5]) [%],Osteoclast inhibitory activity (inhibition of TRAP activity in RAW 264.7) relative to ipriflavone ([1]; more active than ipriflavone) [fold],Promotion of osteoblast activity (mineralization in MC3T3E1 cells) relative to ipriflavone (MC3T3E1 cells; more active than ipriflavone) [fold]
"COc1ccc2c(=O)c(-c3ccc(OCC(O)CN4CCOCC4)cc3)coc2c1 (stereo not drawn) [Compound 5a, 3-[4-(2-Hydroxy-3-morpholinopropoxy)phenyl]-7-methoxy-4H-chromen-4-one]",117 to 118,0,,,,,,,,
"COc1ccc2c(=O)c(-c3ccc(OCC4CO4)cc3)coc2c1 (stereo not drawn) [Compound 3, 7-Methoxy-3-[4-(oxiran-2-ylmethoxy)phenyl]-4H-chromen-4-one]",153 to 154,107,,,,,,,,
"COc1ccc(-c2coc3cc(OCC4CO4)ccc3c2=O)cc1OC (stereo not drawn) [Compound 4, 3-(3,4-Dimethoxyphenyl)-7-(oxiran-2-ylmethoxy)-4H-chromen-4-one]",,119,84,comparable anti-osteoporotic activities with that of compound 5c,112,977,76,429,,
COc1ccc2c(=O)c(-c3ccc(OCC(O)CNC4CC4)cc3)coc2c1 (stereo not drawn) [Compound 5b],105 to 106,103,,,,,,,,
"COc1ccc2c(=O)c(-c3ccc(OCC(O)CNC4CCCCC4)cc3)coc2c1 (stereo not drawn) [Compound 5c, 3-{4-[3-(Cyclohexylamino)-2-hydroxypropoxy]phenyl}-7-methoxy-4H-chromen-4-one]",125 to 126,119,97,,78,976,82,,4,10
"CC(C)Oc1ccc2c(=O)c(-c3ccccc3)coc2c1 [Ipriflavone, reference compound]",,31,99,,100,100,81,100,,
